Consider 11 compounds from article PMC12261228 (ACS Pharmacology & Translational Science, 2025).

For data set [1], the system named is CCRF-CEM. Briefly: MTS cytotoxicity assay, 72 h. In kind it is cell-based. As to conditions: Homo sapiens, CCRF-CEM, 72 h. Background: Tetrazolium assays rely on reduction of a dye to a coloured formazan, in cell work by metabolically active cells.
Data set [2] has as its system K562. Briefly: MTS cytotoxicity assay, 72 h. As to conditions: Homo sapiens, K562, 72 h, read-out: IC50 K562. In kind it is cell-based.
Data set [3] has as its system HCT116. Briefly: MTS cytotoxicity assay, 72 h. In kind it is cell-based. As to conditions: Homo sapiens, HCT-116, 72 h, read-out: IC50 HCT116.
The subject of data set [4] is HCT116p53–/–. Briefly: MTS cytotoxicity assay, 72 h. In kind it is cell-based. As to conditions: read-out: IC50 HCT116p53–/–.
For data set [5], the system named is MRC-5. Briefly: MTS cytotoxicity assay, 72 h. In kind it is cell-based. As to conditions: Homo sapiens, MRC5, 72 h, read-out: IC50 MRC-5.
Data set [6] concerns BJ. Briefly: MTS cytotoxicity assay, 72 h. Format: cell-based. As to conditions: Homo sapiens, read-out: IC50 BJ.
For data set [7], the system named is HUVEC. Briefly: MTS cytotoxicity assay, 72 h. Format: cell-based. As to conditions: Homo sapiens, 3-day incubation, mean ± SD.
The subject of data set [8] is microtubules in U2OS cells. Briefly: Immunofluorescence of microtubule organization. Format: cell-based, human. As to conditions: 15 h. As to the method:
DMSO at appropriate dilution served as control.
Immunofluorescence microscopy on formaldehyde-fixed, Triton X-100 extracted cells (F/Tx) was performed as previously described. Extraction and fixation steps were carried out in a microtubule stabilizing buffer consisting of 0.1 M KMes, 2 mM EGTA, 2 mM MgCl2, 4% polyethylene glycol 6000, pH 6.9. Cells were fixed for 30 min in 3% formaldehyde before extraction for 4 min with 0.5% Triton X-100 at 37 °C. Mouse monoclonal antibody TU-01 (IgG1) directed to α-tubulin , in the form of hybridoma spent culture medium was diluted 1:10. The DyLight 549-conjugated antimouse antibody (Jackson Immunoresearch Laboratories, West Grove, PA, USA) was diluted 1:500. Samples were mounted in MOWIOL 4–88 (Calbiochem, San Diego, CA, USA) supplemented with 4,6-diamidino-2-phenylindole (DAPI; Sigma-Aldrich, St. Louis, MO, USA) and examined with an Olympus AX-70 Provis microscope (Olympus, Hamburg, Germany) equipped with a 60×/1.0 water objective.

The test system of data set [9] is panel of cell lines.
The subject of data set [10] is CCRF-CEM lymphoblasts. Briefly: FACS analysis of cell cycle, apoptosis, mitosis and polyploidy. As to conditions: for Mitosis: phospho-Histone (Ser10); for Apoptosis: sub-G0/G1 DNA content, % of positive cells. A general note: A flow cytometer gives signals particle by particle.
The subject of data set [11] is CEM-DNR. Briefly: MTS cytotoxicity assay, 72 h. In kind it is cell-based. As to conditions: Homo sapiens, daunorubicin-resistant, MTS assay, 3-day incubation, mean ± SD, read-out: IC50 CEM-DNR.
Data set [12] relates to K562-TAX. Briefly: MTS cytotoxicity assay, 72 h. In kind it is cell-based. As to conditions: paclitaxel-resistant, MTS assay, 3-day incubation, mean ± SD, read-out: IC50 K562-TAX.
In data set [13] the test system is U2OS. Briefly: MTS cytotoxicity assay, 72 h. Format: cell-based, human. As to conditions: Homo sapiens, U2OS, 72 h; MTS assay, 3-day incubation, mean ± SD; read-out: IC50 U2OS.
The subject of data set [14] is A549. Briefly: MTS cytotoxicity assay, 72 h. In kind it is cell-based. As to conditions: Homo sapiens, Fig. S22. As to the method:
Cell suspensions were prepared and diluted according to the particular cell type and the expected target cell density (500 – 4,000 cells/well). The cells (30 μL/well) were seeded to 384-well clear Corning plates by MultiDrop Combi (Thermo Fisher Scientific, USA). After 24 h the cells were treated with tested compounds as well as with vehicle (DMSO) and high controls (2.67 μM of Actinomycin D and 100 μM Mitomycin C) using contact-free acoustic liquid handler ECHO 555 (Labcyte, USA). Compounds were analyzed at a concentration range from 0.012 μM to 50 μM. Treated cells were incubated at 37 °C in a 5% CO2 atmosphere of a humidified incubator for 72 h. At the end of the incubation period, aliquots of the MTS (Promega) solution prepared according to manufacturer's instructions were added to cells (https://worldwide.promega.com/resources/protocols/technical-bulletins/0/celltiter-96-aqueous-nonradioactive-cell-proliferation-assay-protocol/). After 1 – 4 h of the incubation period, the optical density (OD) at 490 nm was measured on a multimode plate reader EnVision (PerkinElmer, USA). The experiments were performed in technical duplicates and at least three biological replicates. […] The assay quality was monitored by determining the Z′-factor for each 384-well plate. The resistance index (RI), representing the reduction in compound activity on resistant cell lines, was calculated as RI = (IC50 of resistant cell lines, CEM-DNR, K562-TAX)/(IC50 of nonresistant counterparts, CCRF-CEM, K562). Similarly, the selectivity index (SI), indicating preferential cytotoxicity toward tumor cell lines, was calculated as SI = (mean IC50 of nontumor cell lines, BJ and MRC5)/(mean IC50 of cancer cell lines without resistant variants, CCRF-CEM, K562, HCT116, HCT116p53–/–, U2OS).

The mark [15] stands for this setting: MTS assay, 3-day incubation, mean ± SD of 3 experiments, read-out: IC50 CCRF-CEM.
Setting [16] is: MTS assay, 3-day incubation, mean ± SD.
[17] abbreviates: normal fibroblasts, MTS assay, 3-day incubation, mean ± SD.

Like-named read-outs stand apart in the source and are kept apart here.

For the compound `COc1cc(C2=C3C(C)=CC(C)=[N+]3[B-](F)(F)n3c(C)cc(C)c32)ccc1OCc1cn([C@H]2CCc3cc(OC)c(OC)c(OC)c3-c3ccc(OC)c(=O)cc32)nn1` [CB6], the IC50 in data set [1] (read-out: IC50 CCRF-CEM, MTS assay, 3-day incubation, mean ± SD of 3 experiments) was 0.14 ± 0.01 µM; in data set [2], 0.026 ± 0.001 µM; in data set [3], 0.43 ± 0.0325 µM; in data set [4], 0.38 ± 0.057 µM; in data set [5], more than 50 µM; in [6], more than 50 µM. In data set [7], this compound gave an IC50 of less than 0.0122 µM. The “effect on microtubules (in words)” value in [8] (10 μM) is recorded as “microtubule remnants were detectable”. For the same compound, the “cytotoxic activity across the cell line panel (in words)” value in [9] is reported as “changed only slightly”. For the same compound, the G0/G1 is 12.32% in data set [10] (1×IC50, 24 h) and 3.72% in data set [10] (5×IC50, 24 h). Besides, in data set [10] (1×IC50, 24 h), the G2/M is given as 55.58%. Further, the Polyploid cells in [10] (1×IC50, 24 h) stood at 23.13%; in data set [10] (5×IC50, 24 h) it was 24.76%. The S in [10] (1×IC50, 24 h) is listed as 32.1%; in data set [10] (5×IC50, 24 h) it was 1.88%. Besides, the Mitosis in data set [10] (1×IC50, 24 h) is listed as 29.41%; in data set [10] (5×IC50, 24 h), 61.11%. Moreover, the Apoptosis was 7.55% in data set [10] (1×IC50, 24 h) and 14.32% in [10] (5×IC50, 24 h).

As to `CC1=CC(C)=[N+]2C1=C(CCCCN(C)C)c1c(C)cc(C)n1[B-]2(F)F` [B6], the IC50 in data set [1] (setting [15]), in data set [11], in [2] (setting [16]), in data set [12], in data set [3] (setting [16]) and in data set [4] (setting [16]) was more than 50 µM each time. Further, the IC50 in [13], in [5] (setting [17]), in data set [6] (setting [17]) and in data set [14] was more than 50 µM each time.

For the compound `C#CCCCCCCCCC1=C2C(C)=CC(C)=[N+]2[B-](F)(F)n2c(C)cc(C)c21` [B10], the IC50 in data set [1] (setting [15]), in [11], in [2] (setting [16]), in [12], in data set [3] (setting [16]) and in data set [4] (setting [16]) was more than 50 µM each time. Besides, the IC50 in [13], in data set [5] (setting [17]), in data set [6] (setting [17]) and in data set [14] was more than 50 µM each time.

Turning to `COc1cc2c(c(OC)c1OC)-c1ccc(OC)c(=O)cc1[C@@H](NC(C)=O)CC2` [Col, colchicine, reference compound], in data set [8] (0.1 μM), the “effect on microtubules (in words)” value was “effectively depolymerized microtubules”. In [10] (1×IC50, 24 h), this compound displayed a G0/G1 of 2.61%, a G2/M of 80.55%, a Polyploid cells of 14.45% and an S of 16.84%. In data set [10] (1×IC50, 24 h), the Mitosis turned out to be 58.35% and the Apoptosis is 13.67%. In data set [10] (5×IC50, 24 h), the G0/G1 was determined as 4.73%, the G2/M was 70.57%, the Polyploid cells was 14.73% and the S came to 24.71%. In data set [10] (5×IC50, 24 h), the Mitosis amounted to 64.48% and the Apoptosis is listed as 11.47%. Moreover, the “polyploidization in CCRF-CEM cells (in words)” value in [10] (both 1 × IC50 and 5 × IC50) is on record as “induced polyploidization”.

On to `C#CCOc1ccc(C2=C3C(C)=CC(C)=[N+]3[B-](F)(F)n3c(C)cc(C)c32)cc1OC` [B8], for which the IC50 in data set [1] (setting [15]), in data set [11], in data set [2] (setting [16]), in data set [12], in [3] (setting [16]) and in data set [4] (setting [16]) was more than 50 µM each time. Moreover, the IC50 in data set [13], in [5] (setting [17]), in data set [6] (setting [17]) and in data set [14] was more than 50 µM in each case.

As to `COc1cc(C2=C3C(C)=CC(C)=[N+]3[B-](F)(F)n3c(C)cc(C)c32)ccc1O` [B7], the IC50 in data set [1] (setting [15]) was more than 50 µM; in [11] it was 39.9 µM; in data set [2] (setting [16]), more than 50 µM; in data set [12], more than 50 µM; in data set [3] (setting [16]), more than 50 µM; in data set [4] (setting [16]), more than 50 µM. The IC50 in data set [13], in data set [5] (setting [17]), in data set [6] (setting [17]) and in data set [14] was more than 50 µM in each case.

`CC1=CC(C)=[N+]2C1=C(CCCCN)c1c(C)cc(C)n1[B-]2(F)F` [B4]: the IC50 is 32.9 µM in data set [1] (setting [15]); more than 50 µM in data set [11]; more than 50 µM in [2] (setting [16]); more than 50 µM in data set [12]; more than 50 µM in data set [3] (setting [16]); more than 50 µM in data set [4] (setting [16]). The IC50 in data set [13], in data set [5] (setting [17]), in data set [6] (setting [17]) and in data set [14] was more than 50 µM throughout.

Regarding `CC1=CC(C)=[N+]2C1=C(CCC(=O)O)c1c(C)cc(C)n1[B-]2(F)F` [B1], the IC50 in [1] (setting [15]), in [2] (setting [16]), in data set [3] (setting [16]), in data set [4] (setting [16]), in [13] and in data set [5] (setting [17]) was more than 50 µM each time. For the same compound, the IC50 in [6] (setting [17]) and in data set [14] was more than 50 µM each time.

`C#CCCCC1=C2C(C)=CC(C)=[N+]2[B-](F)(F)n2c(C)cc(C)c21` [B9]: the IC50 in data set [1] (setting [15]), in [11], in data set [2] (setting [16]), in [12], in data set [3] (setting [16]) and in data set [4] (setting [16]) was more than 50 µM each time. The IC50 in data set [13], in [5] (setting [17]), in data set [6] (setting [17]) and in [14] was more than 50 µM in each case.

As to `CNCCCCC1=C2C(C)=CC(C)=[N+]2[B-](F)(F)n2c(C)cc(C)c21` [B5], the IC50 is 27.8 µM in [1] (setting [15]); 36.3 µM in data set [11]; more than 50 µM in [2] (setting [16]); 35.8 µM in data set [12]; more than 50 µM in data set [3] (setting [16]); more than 50 µM in [4] (setting [16]). The IC50 in data set [13], in data set [5] (setting [17]), in [6] (setting [17]) and in data set [14] was more than 50 µM in each case.

Consider `CC1=CC(C)=[N+]2C1=C(CCCCBr)c1c(C)cc(C)n1[B-]2(F)F` [B3, difluoro-1,3,5,7-tetramethyl-4-bora-3a,4a-diaza-s-indacene-8-yl)butyl bromide], for which the IC50 in data set [1] (setting [15]), in data set [11], in data set [2] (setting [16]), in [12], in [3] (setting [16]) and in data set [4] (setting [16]) was more than 50 µM each time. Moreover, the IC50 in data set [13], in data set [5] (setting [17]), in [6] (setting [17]) and in data set [14] was more than 50 µM in each case.
